Source: patent US20110123651A1, “DIETARY SUPPLEMENT DRINK FOR DELIVERY OF RESVERATROL AND OTHER POLYPHENOLS” (priority 2009, published 2011)

Assay: Buccal delivery of resveratrol in humans: free resveratrol in plasma
Assay type: in vivo
Settings: human, 1 mg resveratrol in 50 mL solution retained in the mouth for one minute before swallowing, plasma two minutes later, read-out: free resveratrol measured in plasma
Protocol: One efficient way of administering resveratrol in humans may be buccal delivery, that is without immediate swallowing, by direct absorption through the inside of the mouth. As an example, when one mg of resveratrol in 50 mL solution was retained in the mouth for one minute before swallowing, 37 ng/ml of free resveratrol was measured in plasma two minutes later. This level of unchanged resveratrol in blood can only be achieved with 250 mg of resveratrol taken in pill form.

SMILES: Oc1ccc(C=Cc2cc(O)cc(O)c2)cc1 [resveratrol]
- concentration at 2 min: 37 ng/mL
